In patent US4372948A, “Derivative of saccharide and physiologically active agent containing the same” (Kureha Kagaku Kogyo Kabushiki Kaisha, priority 1980, dated 1983):

Assays:
acetic acid writhing = assay: Analgetic activity against chemical stimulation of acetic acid (writhing); assay type: in vivo, mouse (ICR female); conditions: Mus musculus, po, 30 min before 0.6% acetic acid, read-out: I.R. of writhing
Source text: Rate of inhibition (I.R.) (%)=(1-T/C)×100
T represents the average number of writhing of the group of mice administered with the present compound and injected with acetic acid, and C represents the average number of writhing of the group of mice only injected with acetic acid (control).

blood pressure = assay: Anti-hypertension activity (reduction of blood pressure); assay type: in vivo, rat (spontaneous hypertension); conditions: oral, 300 mg/kg
Summary of the method: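 Spontaneously hypertensive rats dosed orally at 300 mg/kg in distilled water. Blood pressure measured at 3 and 6 h. Activity taken as change from the value just before dosing.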

total cholesterol = assay: Anti-hyperlipemia activity, total cholesterol in blood; assay type: in vivo, rabbit (Japanese white male); conditions: oral, 300 mg/kg once; for Reduction of cholesterol level after 3 hrs.: negative = raising
Summary of the method: (§1)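 Male Japanese white rabbits fed 1% cholesterol diet for 3 months received compound once orally at 300 mg/kg in water. Ear-vein blood: cholesterol by enzymatic method, beta-lipoprotein by colorimetry; values are change from predose at 3 or 6 h.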

carrageenin edema = assay: Anti-Carrageenin edema activity; assay type: in vivo, rat; conditions: Rattus norvegicus, po, 1000 mg/kg once, read-out: I.R. against carrageenin edema
Summary of the method: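 Rats (10 per group) given compound orally once at 1000 mg/kg in distilled water, then 0.1 ml 1% carrageenin injected into right hind foot pad. Foot pad thickness measured at intervals; inhibition rate (%) = (1−T/C)×100 versus carrageenin-only animals.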

exudation = assay: Anti-exudation activity (air pouch, croton oil); assay type: in vivo, rat; conditions: Rattus norvegicus, po, 144 h, 5 days, read-out: I.R. against exudation
Summary of the method: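 Rats, 6 per group, given subcutaneous dorsal air pouch injected with 0.5 ml sesame oil containing 1% croton oil. Compounds dosed orally in distilled water at 1000 mg/kg/day for five days; pouch exudate volume measured on day 6 and expressed as percent inhibition of exudation.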

in vivo = conditions: mouse, in vivo, po, mice, 7 days observation, read-out: LD50, acute oral toxicity
Sarcoma-180 = assay: Anti-tumour activity against Sarcoma-180; assay type: in vivo, mouse (ICR-JCL); conditions: Mus musculus, Sarcoma-180, po, 600 h, 10 times every other day, tumour weight on 25th day, read-out: Antitumour activity, inhibiting rate (I.R.)
Summary of the method: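 ICR-JCL mice were given 1×10^6 Sarcoma-180 cells axillary; from 24 hours, compounds in saline were dosed orally at 500 mg/kg/time, 10 times every other day. Tumour nodes were weighed on day 25; inhibition rate = (1-T/C)×100(%) versus untreated tumour-bearing mice.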

[1] = system: pseudo-escaping reaction to tail pressure; assay: Analgetic activity against mechanical stimulation of pressure; assay type: in vivo, mouse (ICR female); conditions: oral, 1000 mg/kg
cotton pellet granuloma = assay: Anti-granuloma activity (cotton pellet); assay type: in vivo, rat; conditions: Rattus norvegicus, po, 192 h, 7 days, read-out: I.R. against cotton pellet edema
Summary of the method: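 Rats (6/group) implanted dorsally with two 30±1 mg cotton pellets; compounds given orally in distilled water at 1000 mg/kg/day once daily for 7 days. Granuloma excised on day 8 and dry weight measured; value is % inhibition of granuloma proliferation.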

[2] = system: pyrexia (Saccharomyces cerevisiae); assay: Anti-pyrexia activity (yeast-induced); assay type: in vivo; conditions: Rattus norvegicus, oral, read-out: Rate of inhibiting pyrexia (I.R.)
Summary of the method: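 Rats (n=6/group) received subcutaneous 20% Saccharomyces cerevisiae suspension, fasted 10 h, then dosed orally with 1000 mg/kg compound in distilled water. Rectal temperature was tracked at set intervals and the lowest value taken; inhibition rate computed against non-yeast and yeast-only control temperatures.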

beta-lipoprotein = assay: Anti-hyperlipemia activity, beta-lipoprotein in blood; assay type: in vivo, rabbit (Japanese white male); conditions: oral, 300 mg/kg once
Summary of the method: as §1

level of blood sugar = assay: Anti-hyperglycemia activity (reduction of blood sugar level); assay type: in vivo, rat (Wistar, streptozotocin); conditions: oral, 300 mg/kg
Summary of the method: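 Streptozotocin-diabetic Wistar rats (60 mg/kg i.p., relapsed hyperglycemia after insulin) given compounds orally at 300 mg/kg in distilled water. Blood sugar measured in samples taken 3 and 6 h post-dose.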

Row | Compound | inhibition in vivo at 1000 mg/kg (acetic acid writhing) [%] | Reduced level of blood pressure after 3 hrs. (blood pressure) [mm Hg] | Reduced level of blood pressure after 6 hrs. (blood pressure) [mm Hg] | Reduction of cholesterol level after 3 hrs. (total cholesterol) [mg/dL] | Reduction of cholesterol level after 6 hrs. (total cholesterol) [mg/dL] | inhibition in vivo at 1000 mg/kg (carrageenin edema) [%] | inhibition in vivo at 1000 mg/kg/day (exudation) [%] | LD50 at 168 h (in vivo) [mg/kg] | inhibition in vivo at 500 mg/kg (Sarcoma-180) [%] | Pseudo-escapting reaction pressure [1] [mmHg] | Pseudo-escapting reaction time [1] [s] | inhibition in vivo at 1000 mg/kg/day (cotton pellet granuloma) [%] | inhibition in vivo at 1000 mg/kg [2] [%] | Reduction of beta-lipoprotein level after 3 hrs. (beta-lipoprotein) [mg/dL] | Reduction of beta-lipoprotein level after 6 hrs. (beta-lipoprotein) [mg/dL] | Reduced level of blood sugar after 3 hrs. (level of blood sugar) [mg/dL] | Reduced level of blood sugar after 6 hrs. (level of blood sugar) [mg/dL]
1 | C[C@@H]1OC(Nc2ccc(C(=O)OCC3CCCCC3)cc2)[C@H](O)[C@H](O)[C@H]1O (stereo partly drawn) [Compound 25, hexahydrobenzyl p-aminobenzoate-N-L-rhamnoside] | 50 | 16 | 18 | -3 | 44 | 18.1 | 22.3 | 9400 | 50 | 93 | 44 | 6.5 | 54 | 95 | 106 | 88 | 127
2 | C[C@@H]1OC(Nc2cccc(C(=O)OCC3CCCCC3)c2)[C@@H](O)[C@H](O)[C@@H]1O (stereo partly drawn) [Compound 22, hexahydrobenzyl m-aminobenzoate-N-L-fucoside] | 19 | 15 | 21 | 6 | 38 | 24.6 | 7.7 | 10100 | 35 | 75 | 37 | 15.7 | 29 | 125 | 133 | 133 | 150
3 | NC(=O)c1cccc(NC2O[C@H](CO)[C@@H](O[C@@H]3O[C@H](CO)[C@@H](O)[C@H](O)[C@H]3O)[C@H](O)[C@H]2O)c1 (stereo partly shown) [Compound 2, m-aminobenzoic acid amide-N-cellobioside] | 20 | 20 | 22 | 1 | 30 | 20.3 | 6.6 | > 15000 | 35 | 84 | 42 | 6.1 | 36 | 108 | 124 | 85 | 103
4 | O=C(OCC1CCCCC1)c1ccccc1NC1O[C@H](CO)[C@@H](O[C@@H]2O[C@H](CO)[C@H](O)[C@H](O)[C@H]2O)[C@H](O)[C@H]1O (stereo partly shown) [Compound 21, hexahydrobenzyl o-aminobenzoate-N-lactoside] | 28 | 16 | 17 | 4 | 43 | 19.4 | 20.7 | > 15000 | 44 | 84 | 40 | 7.2 | 28 | 96 | 109 | 95 | 102
5 | C[C@@H]1OC(Nc2ccc(C(N)=O)cc2)[C@H](O)[C@H](O)[C@H]1O (stereo partly drawn) [Compound 5, p-aminobenzoic acid amide-N-L-rhamnoside] | 52 | 17 | 18 | -1 | 32 | 4.2 | 12.4 | 10500 | 39 | 90 | 41 | 16.8 | 59 | 134 | 148 | 91 | 128
6 | NC(=O)c1ccc(NC2O[C@H](CO)[C@@H](O)[C@H](O)[C@@H]2O)cc1 (stereo partly drawn) [Compound 4, p-aminobenzoic acid amide-N-D-mannoside] | 41 | 14 | 20 | 0 | 46 | 12.1 | 5.7 | 13600 | 42 | 96 | 45 | 14.9 | 28 | 123 | 135 | 110 | 116
7 | O=C(OCC1CCCCC1)c1ccc(NC2O[C@H](CO)[C@@H](O)[C@H](O)[C@H]2O)cc1 (stereo partly drawn) [Compound 24, hexahydrobenzyl p-aminobenzoate-N-D-glucoside] | 41 | 19 | 21 | 2 | 32 | 10.6 | 8.7 | 12100 | 40 | 85 | 42 | 16.9 | 48 | 95 | 111 | 101 | 145
8 | O=C(OCc1ccccc1)c1cccc(NC2O[C@H](CO)[C@@H](O[C@@H]3O[C@H](CO)[C@H](O)[C@H](O)[C@H]3O)[C@H](O)[C@H]2O)c1 (stereo partly shown) [Compound 12, benzyl m-aminobenzoate-N-lactoside] | 33 | 16 | 18 | 7 | 48 | 18.7 | 10.7 | 11500 | 37 | 90 | 42 | 8.4 | 17 | 121 | 124 | 52 | 95
